Assay: Solubility of olopatadine in PEG 6000 and/or PVP vehicles
Type: physicochemical
Conditions: Table 1 and FIG. 1

- solubility of olopatadine relative to the concentration of PEG6000: essentially linear
Structure (SMILES): CN(C)CC/C=C1/c2ccccc2COc2ccc(CC(=O)O)cc21 [olopatadine]

— US20120022149A1, “PHARMACEUTICAL COMPOSITION WITH ENHANCED SOLUBILITY CHARACTERISTICS” (priority 2010, published 2012)
